# According to patent US8748417B2, “Amino-pyrrolidine-azetidine diamides as monoacylglycerol lipase inhibitors” (Janssen Pharmaceutica, NV, priority 2010, dated 2014):
# Legend:
# [1] = molecular target: T1, purified wild type MGL (wt-MGLL 6H-11-313) (Homo sapiens, UniProt Q99685); experiment: MGL enzyme activity assay (4MU-B cleavage), wild type MGL; format: biochemical; conditions: wild type MGL 5 nM, 4MU-B 10 μM, 37° C.; read-out: MGL wild type inh IC50
# T1 construct: purified wild type MGL (wt-MGLL 6H-11-313)
# T1 sequence (Q99685 1-303): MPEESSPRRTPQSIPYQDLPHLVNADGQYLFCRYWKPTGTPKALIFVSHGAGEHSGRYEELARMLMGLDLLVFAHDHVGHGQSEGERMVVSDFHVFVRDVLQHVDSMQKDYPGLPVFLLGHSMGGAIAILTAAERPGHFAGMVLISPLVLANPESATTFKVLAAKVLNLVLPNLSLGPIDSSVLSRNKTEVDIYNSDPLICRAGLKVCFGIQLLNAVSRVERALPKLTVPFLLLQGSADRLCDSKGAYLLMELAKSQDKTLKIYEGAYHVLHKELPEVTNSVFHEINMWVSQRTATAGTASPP
# Procedure, shortened: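 Enzyme in 20 mM PIPES pH 7.0, 150 mM NaCl, 0.001% Tween 20 with 4MU-B at 10 μM final and MGL at 5 nM final; compounds 17 to 0.0003 μM final, enzyme added last. Fluorescence (ex 335/em 440 nm) followed at 37° C for 5 min; IC50 from fit of fractional activity versus inhibitor concentration.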
# [2] = test system: MGL (rat brain homogenate); experiment: 2-AG accumulation assay in rat brain homogenate; format: biochemical; conditions: compound 1 μM, percent of vehicle 2-AG accumulation
# Experimental: After a 15-min incubation time at 37° C., CaCl2 (final concentration=10 mM) was added and then incubated for 15 min at 37° C. in a total volume of 5 mL. The reactions were stopped with 6 mL organic solvent extraction solution of 2:1 chloroform/methanol. Accumulated 2-AG in the organic phase was measured by a HPLC/MS method, according to the following equation: percent vehicle=(2-AG accumulation in the presence of compound/2-AG accumulation in vehicle)×100.
IC50 [1] [nM],Structure (SMILES),Rat Brain 2AG % VehCntrl (%) @1 μM [2] [%]
10,"O=C(c1nccs1)N1CC[C@H](NC2CN(C(=O)c3sc4ccc(-c5ccc(C(F)(F)F)cc5)cc4c3F)C2)C1 [Cpd 174, (3S)-N-[1-({3-Fluoro-5-[4-(trifluoromethyl)phenyl]-1-benzothiophen-2-yl}carbonyl)azetidin-3-yl]-1-(1,3-thiazol-2-ylcarbonyl)pyrrolidin-3-amine]",791
16,"O=C(c1ccc2c(ccn2-c2ccc(C(F)(F)F)cc2)c1)N1CC(N[C@H]2CCN(C(=O)c3cscn3)C2)C1 [Cpd 158, (3S)-1-(1,3-Thiazol-4-ylcarbonyl)-N-[1-({1-[4-(trifluoromethyl)phenyl]-1H-indol-5-yl}carbonyl)azetidin-3-yl]pyrrolidin-3-amine]",415
19,"Cn1cc(-c2ccc(F)cc2)c2ccc(C(=O)N3CC(N[C@H]4CCN(C(=O)c5cscn5)C4)C3)cc21 [Cpd 193, (3S)-N-(1-{[3-(4-Fluorophenyl)-1-methyl-1H-indol-6-yl]carbonyl}azetidin-3-yl)-1-(1,3-thiazol-4-ylcarbonyl)pyrrolidin-3-amine]",219
74.9,"O=C(c1ccc2c(-c3ccccc3)c[nH]c2c1)N1CC(N[C@H]2CCN(C(=O)c3cscn3)C2)C1 [Cpd 188, (3S)-N-{1-[(3-Phenyl-1H-indol-6-yl)carbonyl]azetidin-3-yl}-1-(1,3-thiazol-4-ylcarbonyl)pyrrolidin-3-amine]",140
90.5,"Cc1ccc2c(C(F)(F)F)c(C(=O)N3CC(N[C@H]4CCN(C(=O)c5nccs5)C4)C3)sc2c1 [Cpd 186, (3S)-N-(1-{[6-Methyl-3-(trifluoromethyl)-1-benzothiophen-2-yl]carbonyl}azetidin-3-yl)-1-(1,3-thiazol-2-ylcarbonyl)pyrrolidin-3-amine]",563
< 5,"O=C(c1ccc2c(-c3ccccc3)c[nH]c2c1)N1CC(N[C@H]2CCN(C(=O)c3nccs3)C2)C1 [Cpd 187, (3S)-N-{1-[(3-Phenyl-1H-indol-6-yl)carbonyl]azetidin-3-yl}-1-(1,3-thiazol-2-ylcarbonyl)pyrrolidin-3-amine]",242
22.4,"Cn1nc(-c2ccccc2)c2cc(C(=O)N3CC(N[C@H]4CCN(C(=O)c5nccs5)C4)C3)ccc21 [Cpd 195, (3S)-N-{1-[(1-Methyl-3-phenyl-1H-indazol-5-yl)carbonyl]azetidin-3-yl}-1-(1,3-thiazol-2-ylcarbonyl)pyrrolidin-3-amine]",472
13.4,"O=C(c1nccs1)N1CC[C@H](NC2CN(C(=O)c3sc4cc(-c5ccccc5)ccc4c3C(F)(F)F)C2)C1 [Cpd 208, (3S)-N-(1-{[6-Phenyl-3-(trifluoromethyl)-1-benzothiophen-2-yl]carbonyl}azetidin-3-yl)-1-(1,3-thiazol-2-ylcarbonyl)pyrrolidin-3-amine]",359
25.1,"Cn1cc(-c2cccc(C(F)(F)F)c2)c2ccc(C(=O)N3CC(N[C@H]4CCN(C(=O)c5cscn5)C4)C3)cc21 [Cpd 164, (3S)-N-[1-({1-Methyl-3-[3-(trifluoromethyl)phenyl]-1H-indol-6-yl}carbonyl)azetidin-3-yl]-1-(1,3-thiazol-4-ylcarbonyl)pyrrolidin-3-amine]",458
< 5,"O=C(c1cscn1)N1CC[C@H](NC2CN(C(=O)c3sc4ccc(-c5ccc(C(F)(F)F)cc5)cc4c3F)C2)C1 [Cpd 175, (3S)-N-[1-({3-Fluoro-5-[4-(trifluoromethyl)phenyl]-1-benzothiophen-2-yl}carbonyl)azetidin-3-yl]-1-(1,3-thiazol-4-ylcarbonyl)pyrrolidin-3-amine]",734
55,"O=C(c1ccc2c(ccn2-c2ccc(F)cc2)c1)N1CC(N[C@H]2CCN(C(=O)c3ccccc3)C2)C1 [Cpd 161, (3S)-N-(1-{[1-(4-Fluorophenyl)-1H-indol-5-yl]carbonyl}azetidin-3-yl)-1-(phenylcarbonyl)pyrrolidin-3-amine]",485
39.6,"O=C(c1cscn1)N1CC[C@H](NC2CN(C(=O)c3sc4ccc(Cl)cc4c3C(F)(F)F)C2)C1 [Cpd 181, (3S)-N-(1-{[5-Chloro-3-(trifluoromethyl)-1-benzothiophen-2-yl]carbonyl}azetidin-3-yl)-1-(1,3-thiazol-4-ylcarbonyl)pyrrolidin-3-amine]",241

# Further lines, the molecule ahead of its results:
Structure (SMILES),IC50 [1] [nM],Rat Brain 2AG % VehCntrl (%) @1 μM [2] [%]
"O=C(c1ccc2c(ccn2-c2ncccn2)c1)N1CC(N[C@H]2CCN(C(=O)c3nccs3)C2)C1 [Cpd 119, (3S)-N-{1-[(1-Pyrimidin-2-yl-1H-indol-5-yl)carbonyl]azetidin-3-yl}-1-(1,3-thiazol-2-ylcarbonyl)pyrrolidin-3-amine]",48.8,255
"O=C(c1cscn1)N1CC[C@H](NC2CN(C(=O)c3sc4cc(-c5ccc(C(F)(F)F)cc5)ccc4c3Cl)C2)C1 [Cpd 151, (3S)-N-[1-({3-Chloro-6-[4-(trifluoromethyl)phenyl]-1-benzothiophen-2-yl}carbonyl)azetidin-3-yl]-1-(1,3-thiazol-4-ylcarbonyl)pyrrolidin-3-amine]",< 5,495
"O=C(c1cc2ccc(-c3cccc(C(F)(F)F)c3)cc2s1)N1CC(N[C@H]2CCN(C(=O)c3nccs3)C2)C1 [Cpd 99, (3S)-1-(1,3-Thiazol-2-ylcarbonyl)-N-[1-({6-[3-(trifluoromethyl)phenyl]-1-benzothiophen-2-yl}carbonyl)azetidin-3-yl]pyrrolidin-3-amine]",< 5,644
"Cc1c(C(=O)N2CC(N[C@H]3CCN(C(=O)c4ccccc4)C3)C2)sc2ccc(-c3ccc(F)cc3)cc12 [Cpd 94, (3S)-N-(1-{[5-(4-Fluorophenyl)-3-methyl-1-benzothiophen-2-yl]carbonyl}azetidin-3-yl)-1-(phenylcarbonyl)pyrrolidin-3-amine]",< 5,445
"Cc1c(C(=O)N2CC(N[C@H]3CCN(C(=O)c4nccs4)C3)C2)sc2cc(F)ccc12 [Cpd 87, (3S)-N-{1-[(6-Fluoro-3-methyl-1-benzothiophen-2-yl)carbonyl]azetidin-3-yl}-1-(1,3-thiazol-2-ylcarbonyl)pyrrolidin-3-amine]",34.1,385
"O=C(c1ccc2c(ccn2-c2ccc(C(F)(F)F)cc2)c1)N1CC(N[C@H]2CCN(C(=O)c3nccs3)C2)C1 [Cpd 118, (3S)-1-(1,3-Thiazol-2-ylcarbonyl)-N-[1-({1-[4-(trifluoromethyl)phenyl]-1H-indol-5-yl}carbonyl)azetidin-3-yl]pyrrolidin-3-amine]",< 5,626
"CC(C)=Cc1c(C(=O)N2CC(N[C@H]3CCN(C(=O)c4ccccc4)C3)C2)sc2cc(C(F)(F)F)ccc12 [Cpd 76, (3S)-N-(1-{[3-(2-Methylprop-1-en-1-yl)-6-(trifluoromethyl)-1-benzothiophen-2-yl]carbonyl}azetidin-3-yl)-1-(phenylcarbonyl)pyrrolidin-3-amine]",61.8,522
"O=C(c1ccc2c(ccn2-c2ccc(C(F)(F)F)cc2)c1)N1CC(N[C@H]2CCN(C(=O)c3ccccc3)C2)C1 [Cpd 154, (3S)-1-(Phenylcarbonyl)-N-[1-({1-[4-(trifluoromethyl)phenyl]-1H-indol-5-yl}carbonyl)azetidin-3-yl]pyrrolidin-3-amine]",13.4,582
"O=C(c1ccc2c(-c3cccc(C(F)(F)F)c3)c[nH]c2c1)N1CC(N[C@H]2CCN(C(=O)c3cscn3)C2)C1 [Cpd 106, (3S)-1-(1,3-Thiazol-4-ylcarbonyl)-N-[1-({3-[3-(trifluoromethyl)phenyl]-1H-indol-6-yl}carbonyl)azetidin-3-yl]pyrrolidin-3-amine]",< 5,389
"O=C(c1cscn1)N1CC[C@H](NC2CN(C(=O)c3cc4ccc(-c5ccccc5)cc4s3)C2)C1 [Cpd 124, (3S)-N-{1-[(6-Phenyl-1-benzothiophen-2-yl)carbonyl]azetidin-3-yl}-1-(1,3-thiazol-4-ylcarbonyl)pyrrolidin-3-amine]",6,227
"O=C(c1cscn1)N1CC[C@H](NC2CN(C(=O)c3sc4cc(Br)ccc4c3Cl)C2)C1 [Cpd 141, (3S)-N-{1-[(6-Bromo-3-chloro-1-benzothiophen-2-yl)carbonyl]azetidin-3-yl}-1-(1,3-thiazol-4-ylcarbonyl)pyrrolidin-3-amine]",19,388
"Cc1c(C(=O)N2CC(N[C@H]3CCN(C(=O)c4nccs4)C3)C2)sc2ccc(Cl)cc12 [Cpd 84, (3S)-N-{1-[(5-Chloro-3-methyl-1-benzothiophen-2-yl)carbonyl]azetidin-3-yl}-1-(1,3-thiazol-2-ylcarbonyl)pyrrolidin-3-amine]",< 5,433
